# Laboratory results from patent publication US11524960B2, “Heterobicyclic inhibitors of MAT2A and methods of use for treating cancer” (AGIOS PHARMACEUTICALS, INC., priority 2018, dated 2022).
# Experiments:
# [1] = tested on: HCT116 MTAP−/−; assay: Inhibition of cellular proliferation (Cell Titer Glo), HCT116 MTAP−/−; assay type: cell-based, human; details: Homo sapiens, HCT-116, 96 h, 4 days, IC50 score, read-out: 4 Day Relative Growth Inhibition (MTAP −/−; Example 277)
# Summary of the method: (§1)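 Proliferation was read as ATP luminescence (Cell Titer Glo) after a 4-day, 37 °C exposure of HCT116 cells differing only in MTAP deletion status. Dosing was 10 points, 3-fold steps, added 24 h post-plating; signal minus blank, relative to 0.2% DMSO control wells, was plotted against log molar concentration.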
# [2] = molecular target: T1, MAT2A homodimer (Homo sapiens, UniProt P31153); assay: Biochemical assay: inhibition of MAT2A (phosphate release, PiColorLock Gold); details: MAT2A IC50 score; read-out: Enzyme Inhibition (Example 275)
# T1 construct: inferred from Ni sepharose purification and imidazole elution; made in house; host or cells: Sf9 insect cells, recombinant baculovirus (Bac to Bac, pFASTBAC1)
# Summary of the method: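 Phosphate formed alongside SAM was read with PiColorLock Gold and quantified against a potassium phosphate standard curve. Reactions ran 60 min at 25 °C after adding a substrate mix of 500 μM ATP and 400 μM L-methionine (mix concentrations). Compound had first been preincubated 60 min with recombinant Sf9-derived MAT2A homodimer ([…]) in pH 8.0 Tris buffer containing MgCl2, KCl, EDTA and BSA.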
# [3] = tested on: SAM in HCT116 human colon carcinoma cell line engineered to delete the MTAP gene (MTAP −/−); assay: Cellular assay of target engagement (SAM) by LC-MS/MS; assay type: cell-based; details: Homo sapiens, HCT-116, 72 h, IC50 score, read-out: Cell 72 h SAM Inhibition (MTAP −/−; Example 276)
# Summary of the method: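 Intracellular SAM, the MAT2A product, was measured by quantitative LC-MS/MS against a d3-SAM standard in methanol/acetic acid extracts. Extracts came from HCT116 MTAP −/− cells exposed for 72 h at 37 °C to a ten-point, threefold dilution series of compound, added one day after seeding.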
# [4] = tested on: HCT116 MTAP+/+; assay: Inhibition of cellular proliferation (Cell Titer Glo), HCT116 MTAP+/+; assay type: cell-based, human; details: Homo sapiens, HCT-116, 96 h, 4 days, IC50 score, read-out: 4 Day Relative Growth Inhibition (MTAP +/+; Example 277)
# Summary of the method: as §1
# T1 sequence (P31153 whole entry): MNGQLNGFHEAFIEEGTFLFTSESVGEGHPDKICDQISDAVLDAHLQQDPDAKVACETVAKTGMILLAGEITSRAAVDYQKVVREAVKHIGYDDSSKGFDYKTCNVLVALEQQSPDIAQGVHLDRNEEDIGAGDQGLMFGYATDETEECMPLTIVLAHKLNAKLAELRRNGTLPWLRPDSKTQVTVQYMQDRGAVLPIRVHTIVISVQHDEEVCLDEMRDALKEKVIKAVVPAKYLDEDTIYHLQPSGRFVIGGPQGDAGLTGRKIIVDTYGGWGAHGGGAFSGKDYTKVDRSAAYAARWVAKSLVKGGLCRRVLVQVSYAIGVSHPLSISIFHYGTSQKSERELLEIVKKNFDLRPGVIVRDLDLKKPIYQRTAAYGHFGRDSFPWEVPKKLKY
SMILES,IC50 [1] [nM],IC50 [2] [nM],IC50 [3] [nM],IC50 [4] [nM]
"O=c1c(-c2ccc(OC(F)F)cc2)c2nc(NC3CC3)ncc2cn1-c1ccc2ncccc2c1 [Example 179, 2-(cyclopropylamino)-8-(4-(difluoromethoxy)phenyl)-6-(quinolin-6-yl)pyrido[4,3-d]pyrimidin-7(6)-one]",100 to 10000,< 100,100 to 1000,> 10000
"O=c1c(-c2ccc(Br)cc2)c2nc(NCC(F)(F)F)ncc2cn1-c1ccc2ncccc2c1 [Example 180, 8-(4-bromophenyl)-6-(quinolin-6-yl)-2-((2,2,2-trifluoroethyl)amino)pyrido[4,3-d]pyrimidin-7(6H)-one]",< 100,< 100,< 100,> 10000
"COc1ccc(-c2c(=O)n(-c3ccc4ncccc4c3)cc3cnc(NCC(F)(F)F)nc23)cc1 [Example 181, 8-(4-methoxyphenyl)-6-(quinolin-6-yl)-2-((2,2,2-trifluoroethyl)amino)pyrido[4,3-d]pyrimidin-7(6H)-one]",100 to 10000,< 100,< 100,> 10000
"CC(C)Nc1ncc2cn(-c3ccc4ncccc4c3)c(=O)c(-c3ccc(OC(F)F)cc3)c2n1 [Example 182, 8-(4-(difluoromethoxy)phenyl)-2-(isopropylamino)-6-(quinolin-6-yl)pyrido[4,3-d]pyrimidin-7(6)-one]",100 to 10000,< 100,< 100,> 10000
"O=c1c(-c2ccc(OC(F)F)cc2)c2nc(NC3CCC3)ncc2cn1-c1ccc2ncccc2c1 [Example 183, 2-(cyclobutylamino)-8-(4-(difluoromethoxy)phenyl)-6-(quinolin-6-yl)pyrido[4,3-d]pyrimidin-7(6)-one]",100 to 10000,< 100,100 to 1000,> 10000
"CCNc1ncc2cn(-c3ccc(OC)cc3)c(=O)c(-c3ccc(Br)cc3)c2n1 [Example 188, 8-(4-bromophenyl)-2-(ethylamino)-6-(4-methoxyphenyl)pyrido[4,3-d]pyrimidin-7(6H)-one]",100 to 10000,< 100,< 100,> 10000
"COc1ccc(-n2cc3cnc(NCC(F)F)nc3c(-c3ccc(Br)cc3)c2=O)cc1 [Example 189, 8-(4-bromophenyl)-2-((2,2-difluoroethyl)amino)-6-(4-methoxyphenyl)pyrido[4,3-d]pyrimidin-7(6H)-one]",100 to 10000,< 100,< 100,100 to 10000
"COc1ccc(-n2cc3cnc(NCC(F)(F)F)nc3c(-c3ccc(Br)cc3)c2=O)cc1 [Example 192, 8-(4-bromophenyl)-6-(4-methoxyphenyl)-2-((2,2,2-trifluoroethyl)amino)pyrido[4,3-d]pyrimidin-7(6H)-one]",100 to 10000,< 100,< 100,> 10000
"COc1ccc(-n2cc3cnc(NCC(F)(F)F)nc3c(-c3ccc(Cl)cc3)c2=O)cc1 [Example 193, 8-(4-chlorophenyl)-6-(4-methoxyphenyl)-2-((2,2,2-trifluoroethyl)amino)pyrido[4,3-d]pyrimidin-7(6H)-one]",100 to 10000,< 100,100 to 1000,> 10000
"COc1ccc(-n2cc3cnc(NCC(F)(F)F)nc3c(-c3ccc(OC(F)F)cc3)c2=O)cc1 [Example 195, 8-(4-(difluoromethoxy)phenyl)-6-(4-methoxyphenyl)-2-((2,2,2-trifluoroethyl)amino)pyrido[4,3-d]pyrimidin-7(6H)-one]",< 100,< 100,< 100,> 10000
"COc1ccc(-n2cc3cnc(NCC(F)(F)F)nc3c(-c3ccc(C4CC4)nc3)c2=O)cc1 [Example 198, 8-(6-cyclopropylpyridin-3-yl)-6-(4-methoxyphenyl)-2-((2,2,2-trifluoroethyl)amino)pyrido[4,3-d]pyrimidin-7(6)-one]",100 to 10000,< 100,100 to 1000,> 10000
"COc1ccc(-c2c(=O)n(-c3ccc(OC)cc3)cc3cnc(NCC(F)(F)F)nc23)cc1 [Example 200, 6,8-bis(4-methoxyphenyl)-2-(2,2,2-trifluoroethylamino)pyrido[4,3-d]pyrimidin-7(6H)-one]",100 to 10000,< 100,100 to 1000,100 to 10000
"COc1ccc(-n2cc3cnc(NCC(F)(F)F)nc3c(-c3ccc(-c4cc[nH]n4)cc3)c2=O)cc1 [Example 202, 8-(4-(H-pyrazol-3-yl)phenyl)-6-(4-methoxyphenyl)-2-((2,2,2-trifluoroethyl)amino)pyrido[4,3-d]pyrimidin-7(6H)-one]",100 to 10000,< 100,100 to 1000,> 10000
"O=c1c(-c2ccc(-c3cc[nH]n3)cc2)c2nc(NCC(F)(F)F)ncc2cn1-c1ccc2ncccc2c1 [Example 203, 8-(4-(H-pyrazol-3-yl)phenyl)-6-(quinolin-6-yl)-2-((2,2,2-trifluoroethyl)amino)pyrido[4,3-d]pyrimidin-7(6H)-one]",> 10000,< 100,100 to 1000,> 10000
"COc1ccc(-n2cc3cnc(NCC(F)(F)F)nc3c(-c3ccc(CCO)cc3)c2=O)cc1 [Example 205, 8-(4-(2-hydroxyethyl)phenyl)-6-(4-methoxyphenyl)-2-(2,2,2-trifluoroethylamino)pyrido[4,3-d]pyrimidin-7(6H)-one]",100 to 10000,< 100,< 100,> 10000
"COc1ccc(-n2cc3cnc(NCC(F)(F)F)nc3c(-c3ccc(-c4nc[nH]n4)cc3)c2=O)cc1 [Example 206, 8-(4-(H-1,2,4-triazol-3-yl)phenyl)-6-(4-methoxyphenyl)-2-(2,2,2-trifluoroethylamino)pyrido[4,3-d]pyrimidin-7(6H)-one]",100 to 10000,< 100,100 to 1000,100 to 10000
"Cn1cc2cc(-n3cc4ccc(SCC(F)(F)F)nc4c(-c4ccc(Cl)cc4)c3=O)ccc2n1 [Example 209, 8-(4-chlorophenyl)-6-(2-methyl-2H-indazol-5-yl)-2-((2,2,2-trifluoroethyl)thio)-1,6-naphthyridin-7(6H)-one]",< 100,< 100,< 100,> 10000
"Cn1cc2cc(-n3cc4ccc(OC5CC5)nc4c(-c4ccc(Cl)cc4)c3=O)ccc2n1 [Example 210, 8-(4-chlorophenyl)-2-cyclopropoxy-6-(2-methyl-2H-indazol-5-yl)-1,6-naphthyridin-7(6H)-one]",< 100,< 100,< 100,> 10000
"Cn1cc2cc(-n3cc4ccc(NCC(F)(F)F)nc4c(-c4ccc(OC(F)(F)F)cc4)c3=O)ccc2n1 [Example 211, 6-(2-methyl-2H-indazol-5-yl)-2-((2,2,2-trifluoroethyl)amino)-8-(4-(trifluoromethoxy)phenyl)-1,6-naphthyridin-7(6H)-one]",< 100,< 100,< 100,> 10000
"Cn1cc2cc(-n3cc4ccc(NCC(F)(F)F)nc4c(-c4ccc(C5CC5)nc4)c3=O)ccc2n1 [Example 212, 8-(6-cyclopropylpyridin-3-yl)-6-(2-methyl-2H-indazol-5-yl)-2-((2,2,2-trifluoroethyl)amino)-1,6-naphthyridin-7(6H)-one]",< 100,< 100,< 100,> 10000
"Cn1cc2cc(-n3cc4ccc(NCC(F)(F)F)nc4c(-c4ccc(C(F)(F)F)cc4)c3=O)ccc2n1 [Example 213, 6-(2-methyl-2H-indazol-5-yl)-2-((2,2,2-trifluoroethyl)amino)-8-(4-(trifluoromethyl)phenyl)-1,6-naphthyridin-7(6H)-one]",< 100,< 100,< 100,> 10000
"CCOc1ccc2cn(-c3ccc4nn(C)cc4c3)c(=O)c(-c3ccc(C(F)(F)F)cc3)c2n1 [Example 215, 2-ethoxy-6-(2-methyl-2H-indazol-5-yl)-8-(4-(trifluoromethyl)phenyl)-1,6-naphthyridin-7(6H)-one]",< 100,< 100,< 100,100 to 10000
"CCOc1ccc2cn(-c3ccc4nn(C)cc4c3)c(=O)c(-c3ccc(C(F)F)nc3)c2n1 [Example 216, 8-(6-(difluoromethyl)pyridin-3-yl)-2-ethoxy-6-(2-methyl-2H-indazol-5-yl)-1,6-naphthyridin-7(6H)-one]",< 100,< 100,< 100,100 to 10000
